43 compounds from PMC3116189, “Novel Natural Inhibitors of CYP1A2 Identified by in Silico and in Vitro Screening” (International Journal of Molecular Sciences, 2011) can be followed below.

Where two headings read alike, the source gives them in different places. A value given as a limit tells only on which side of the number the result lay.

The data set concerns the target T1, CYP1A2 (Homo sapiens, UniProt P05177).
T1 sequence (P05177 1-516): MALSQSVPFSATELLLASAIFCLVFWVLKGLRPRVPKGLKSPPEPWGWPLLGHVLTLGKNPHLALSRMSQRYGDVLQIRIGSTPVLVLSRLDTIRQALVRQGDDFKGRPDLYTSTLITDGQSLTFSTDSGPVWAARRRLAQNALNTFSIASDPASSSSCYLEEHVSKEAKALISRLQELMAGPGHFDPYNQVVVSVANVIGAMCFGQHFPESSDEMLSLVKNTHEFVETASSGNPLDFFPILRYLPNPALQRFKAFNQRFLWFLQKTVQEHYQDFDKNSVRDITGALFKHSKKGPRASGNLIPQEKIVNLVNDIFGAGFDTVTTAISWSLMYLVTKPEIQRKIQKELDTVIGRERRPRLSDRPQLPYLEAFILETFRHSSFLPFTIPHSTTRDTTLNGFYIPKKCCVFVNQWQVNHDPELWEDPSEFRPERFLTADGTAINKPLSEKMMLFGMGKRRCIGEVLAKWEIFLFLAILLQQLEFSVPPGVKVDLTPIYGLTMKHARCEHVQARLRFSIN
Briefly: in vitro. The class given is biochemical.

The mark [1] stands for this setting: 1 μM active ingredient, Rh CYP1A2-mediated phenacetin O-deethylation, test dataset of 202 herb ingredients.
The mark [2] stands for this setting: human, recombinant human CYP1A2, pH 7.4, probe phenacetin (25 μM), O-deethylation to acetaminophen, 1 μM active ingredient, Rh CYP1A2-mediated phenacetin O-deethylation, test dataset of 202 herb ingredients, read-out: % of Control Indication Activity (Mean).
[3] abbreviates: recombinant enzyme, pH 7.4, 1 μM active ingredient, Rh CYP1A2-mediated phenacetin O-deethylation, test dataset of 202 herb ingredients, read-out: % of Control Indication Activity (Mean).
Setting [4] is: human, recombinant enzyme, pH 7.4.
Setting [5] is: human, recombinant enzyme, pH 7.4, 1 μM active ingredient, Rh CYP1A2-mediated phenacetin O-deethylation, test dataset of 202 herb ingredients, read-out: % of Control Indication Activity (Mean).
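Note: recombinant CYP1A2 incubated for 1 h at 37 °C, with the reaction started by an NADPH-generating system.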

In the case of `CC(=O)O[C@H]1C[C@]2(O)[C@@H]3CC[C@@H]4C[C@@H](O)CC[C@]4(C)[C@H]3CC[C@]2(C)[C@H]1c1ccc(=O)oc1` [Bufatalin], under setting [1], the “% of Control Indication Activity (Mean)” value is listed as over 90%.

`CCOC(=O)/C=C/c1ccc(O)c(O)c1` [Caffeic acid ethyl ester]: under setting [1], the “% of Control Indication Activity (Mean)” value is recorded as over 90%.

Take `O=C(O)/C=C/c1ccc(O)c(O)c1` [Caffeic acid]: the activity at 1 h, 1 μM under setting [2] is over 90%.

`C[C@@]12C(=O)OC(=O)[C@]1(C)[C@H]1CC[C@@H]2O1` [Cantharidin]: the activity at 1 h, 1 μM under setting [3] is over 90%.

Regarding `COc1cc(O)cc(O)c1C(=O)/C=C/c1ccccc1` [Cardamonin], the “% of Control Indication Activity (Mean)” value under setting [1] is on record as over 90%.

As to `Cc1ccc(C(C)C)cc1O` [Carvacrol], under setting [2], the activity at 1 h, 1 μM was over 90%.

As for `OC[C@H]1O[C@@H](O[C@@H]2OC=C[C@H]3[C@H](O)[C@@H]4O[C@]4(CO)[C@@H]23)[C@H](O)[C@@H](O)[C@@H]1O` [Catalpo l], the activity at 1 h, 1 μM under setting [2] is over 90%.

Regarding `O=C(/C=C/c1ccc(O)c(O)c1)O[C@@H]1C[C@](O)(C(=O)O)C[C@@H](O)[C@H]1O` [Chlorogenic acid], the activity at 1 h, 1 μM under setting [2] was over 90%.

Take `O=c1cc(-c2ccccc2)oc2cc(O)cc(O)c12` [Chrysin]: the activity at 1 h, 1 μM under setting [4] turned out to be 4.6%.

With `Cc1cc(O)c2c(c1)C(=O)c1cccc(O)c1C2=O` [Chrysophanol], the activity at 1 h, 1 μM under setting [4] came out at 77.7%.

For the compound `O=C/C=C/c1ccccc1` [Cinnamaldehyde], the activity at 1 h, 1 μM under setting [4] was over 90%.

On to `O=C(O)/C=C/c1ccccc1` [Cinnamic acid], for which the activity at 1 h, 1 μM under setting [4] is over 90%.

On to `C=C1C(=O)O[C@@H]2/C=C(\C)CC/C=C(\C)CC[C@@H]12` [Costunolide], for which the activity at 1 h, 1 μM under setting [2] was over 90%.

Take `COc1cc(/C=C/C(=O)CC(=O)/C=C/c2ccc(O)c(OC)c2)ccc1O` [Curcumin]: the activity at 1 h, 1 μM under setting [2] was over 90%.

Regarding `CC1=C2C[C@H]3[C@@H](CC=C4C[C@@H](O)CC[C@@]43C)[C@@H]2CC[C@]12O[C@@H]1C[C@H](C)CN[C@H]1[C@H]2C` [Cyclopamine], the activity at 1 h, 1 μM under setting [3] is over 90%.

`O=c1c(-c2ccc(O)cc2)coc2cc(O)ccc12` [Daidzein]: the activity at 1 h, 1 μM under setting [4] was over 90%.

For `C=C1CC[C@@H]2[C@](C)(CO)[C@H](O)CC[C@@]2(C)[C@@H]1/C=C/C1=CCOC1=O` [Dehydroandrographolide], the “% of Control Indication Activity (Mean)” value (recombinant enzyme) is recorded as over 90.

As to `C=C1CC[C@H]2C(=C)CC[C@H]3C(=C)C(=O)O[C@@H]3[C@@H]12` [Dehydrocostus lactone], the activity at 1 h, 1 μM under setting [4] is over 90%.

As for `COc1cc2c(c(OC)c1OC)-c1c(cc(OC)c(OC)c1OC)C[C@H](C)[C@H](C)C2` [Deoxyschizandrin], under setting [1], the “% of Control Indication Activity (Mean)” value is recorded as over 90%.

In the case of `COc1c2ccc(-c3ccccc3)oc-2cc(=O)c1C` [Dracorhodin], the activity at 1 h, 1 μM under setting [2] was found to be 21.1%.

Consider `Cc1cc(O)c2c(c1)C(=O)c1cc(O)cc(O)c1C2=O` [Emodin], for which, under setting [4], the activity at 1 h, 1 μM was over 90%.

Regarding `CN[C@@H](C)[C@H](O)c1ccccc1` [Ephedrine], the activity (recombinant enzyme, pH 7.4) is over 90%.

Consider `O=c1ccc2cc(O)c(O)cc2o1` [Esculetin], for which, under setting [4], the activity at 1 h, 1 μM was over 90%.

`CC12CCC(CC1)C(C)(C)O2` [Eucalyptol]: the activity at 1 h, 1 μM under setting [2] is over 90%.

For `C=CCc1ccc(O)c(OC)c1` [Eugenol], the activity at 1 h, 1 μM under setting [5] is over 90%.

Turning to `COc1ccc2cc1Oc1ccc(cc1)C[C@H]1c3cc(c(OC)cc3CCN1C)Oc1c(O)c(OC)cc3c1[C@H](C2)N(C)CC3` [Fangchinoline], the activity at 1 h, 1 μM under setting [5] is over 90%.

On to `COc1cc(/C=C/C(=O)O)ccc1O` [Ferulic acid], for which, under setting [1], the “% of Control Indication Activity (Mean)” value is reported as over 90%.

As to `COc1ccc(-c2coc3cc(O)ccc3c2=O)cc1` [Formononetin], under setting [2], the activity at 1 h, 1 μM was over 90%.

Consider `COc1ccc([C@H]2OC[C@H]3[C@@H]2CO[C@H]3c2ccc(O[C@@H]3O[C@H](CO)[C@@H](O)[C@H](O)[C@H]3O)c(OC)c2)cc1OC` [Forsythin], for which the “% of Control Indication Activity (Mean)” value under setting [1] is over 90%.

On to `COc1cc2ccc(=O)oc2c(O)c1O` [Fraxetin], for which the activity at 1 h, 1 μM under setting [2] was over 90%.

Turning to `CC1=C2C(=O)O[C@@H](c3ccoc3)[C@]2(C)CCC1` [Fraxinellone], the activity at 1 h, 1 μM under setting [2] was over 90%.

Consider `O=C(O)c1cc(O)c(O)c(O)c1` [Gallic acid], for which, under setting [4], the activity at 1 h, 1 μM was over 90%.

For `OCc1ccc(O[C@@H]2O[C@H](CO)[C@@H](O)[C@H](O)[C@H]2O)cc1` [Gastrodin], under setting [3], the activity was over 90%.

`COC(=O)C1=CO[C@@H](O[C@@H]2O[C@H](CO)[C@@H](O)[C@H](O)[C@H]2O)[C@@H]2C(CO)=CC[C@H]12` [Geniposide]: the activity under setting [3] was over 90%.

Consider `C[C@@H]1C(=O)O[C@H]2C[C@@]34[C@H]5C[C@@H](C(C)(C)C)[C@]36[C@@H](OC(=O)[C@@H]6O)O[C@@]4(C(=O)O5)[C@]21O` [Ginkgolide A], for which the activity under setting [3] is over 90%.

Consider `CC(C)=CCC[C@](C)(O[C@@H]1O[C@H](CO)[C@@H](O)[C@H](O)[C@H]1O)[C@H]1CC[C@]2(C)[C@@H]1[C@H](O)C[C@@H]1[C@@]3(C)CC[C@H](O)C(C)(C)[C@@H]3[C@@H](O)C[C@]12C` [Ginsenoside F1], for which the activity at 1 h, 1 μM under setting [2] is over 90%.

For the compound `CC(C)=CCC[C@](C)(O[C@@H]1O[C@H](CO[C@@H]2O[C@H](CO)[C@@H](O)[C@H](O)[C@H]2O)[C@@H](O)[C@H](O)[C@H]1O)[C@H]1CC[C@]2(C)[C@@H]1[C@H](O)C[C@@H]1[C@@]3(C)CC[C@H](O[C@@H]4O[C@H](CO)[C@@H](O)[C@H](O)[C@H]4O[C@@H]4O[C@H](CO)[C@@H](O)[C@H](O)[C@H]4O)C(C)(C)[C@@H]3CC[C@]12C` [Ginsenoside Rb1], the activity at 1 h, 1 μM under setting [2] is over 90%.

Turning to `CC(C)=CCC[C@](C)(O[C@@H]1O[C@H](CO)[C@@H](O)[C@H](O)[C@H]1O)[C@H]1CC[C@]2(C)[C@@H]1[C@H](O)C[C@@H]1[C@@]3(C)CC[C@H](O)C(C)(C)[C@@H]3[C@@H](O[C@@H]3O[C@H](CO)[C@@H](O)[C@H](O)[C@H]3O[C@@H]3O[C@@H](C)[C@H](O)[C@@H](O)[C@H]3O)C[C@]12C` [Ginsenoside Re], the activity at 1 h, 1 μM under setting [2] was over 90%.

On to `CC(C)=CCC[C@](C)(O[C@@H]1O[C@H](CO)[C@@H](O)[C@H](O)[C@H]1O)[C@H]1CC[C@]2(C)[C@@H]1[C@H](O)C[C@@H]1[C@@]3(C)CC[C@H](O)C(C)(C)[C@@H]3[C@@H](O[C@@H]3O[C@H](CO)[C@@H](O)[C@H](O)[C@H]3O)C[C@]12C` [Ginsenoside Rg1], for which the activity at 1 h, 1 μM under setting [2] is over 90%.

`CC1(C)[C@@H](O)CC[C@]2(C)[C@H]3C(=O)C=C4[C@@H]5C[C@@](C)(C(=O)O)CC[C@]5(C)CC[C@@]4(C)[C@]3(C)CC[C@@H]12` [Glycyrrhetinic acid]: under setting [2], the activity at 1 h, 1 μM is over 90%.

Turning to `C[C@]1(OC(=O)/C=C/c2ccccc2)C[C@@H](O)[C@]2(O)C=CO[C@@H](O[C@@H]3O[C@H](CO)[C@@H](O)[C@H](O)[C@H]3O)[C@@H]21` [Harpagoside], the activity at 1 h, 1 μM under setting [2] was over 90%.

Consider `CC1(C)CC[C@]2(C(=O)O)CC[C@]3(C)C(=CC[C@@H]4[C@@]5(C)CC[C@H](O)[C@@](C)(CO)[C@@H]5CC[C@]43C)[C@@H]2C1` [Hederagenin], for which the activity at 1 h, 1 μM under setting [2] is over 90%.

On to `COc1ccc([C@@H]2CC(=O)c3c(O)cc(O[C@@H]4O[C@H](CO[C@@H]5O[C@@H](C)[C@H](O)[C@@H](O)[C@H]5O)[C@@H](O)[C@H](O)[C@H]4O)cc3O2)cc1O` [Hesperidin], for which the “% of Control Indication Activity (Mean)” value (recombinant enzyme) is over 90.
